Test results: PubChem BioAssay (NCI)
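1) Cells in 96-well plates. 2) Compound, 48 h, 5 concentrations. 3) Linear interpolation between surrounding doses. 4) Unreached endpoint = highest concentration. GI50 marks 50% less growth. TGI denotes the concentration required for complete inhibition of growth.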

Tests used:
Assay in all cases: inhibition of tumour cell growth, NCI panel, 48 h
HCT-116 colon = system: HCT-116 colon
MDA-MB-435 = system: MDA-MB-435
NCI-H23 lung = system: NCI-H23 lung
SNB-19 CNS = system: SNB-19 CNS
OVCAR-4 ovarian = system: OVCAR-4 ovarian
PC-3 prostate = system: PC-3 prostate

Row | SMILES | TGI (HCT-116 colon) | TGI (MDA-MB-435) | TGI (NCI-H23 lung) | TGI (SNB-19 CNS) | TGI (OVCAR-4 ovarian) | TGI (PC-3 prostate) | GI50 (HCT-116 colon) | GI50 (MDA-MB-435) | GI50 (NCI-H23 lung) | GI50 (SNB-19 CNS) | GI50 (OVCAR-4 ovarian) | GI50 (PC-3 prostate)
1 | O=C(/C=C/c1cccs1)c1ccc([N+](=O)[O-])cc1 | > 100 µM | > 100 µM | > 100 µM | > 100 µM | > 100 µM | > 100 µM | – | – | – | – | – | –
2 | CCN(CC)Cc1cc(Nc2cc(C(F)(F)F)c(C#N)c3nc4ccccc4n23)ccc1O | 4.45 µM | 13.5 µM | 8.29 µM | 36.2 µM | 2.59 µM | 7.87 µM | 1.6 µM | 2.29 µM | 1.21 µM | 4.39 µM | 1 µM | 2.32 µM
3 | N#Cc1cccc(C2C3=C(COC3=O)N(CCO)c3cc4c(cc32)CCC4)c1 (configuration not stated) | 13.3 µM | 0.0662 µM | > 50 µM | > 50 µM | > 50 µM | > 50 µM | 0.143 µM | 0.0171 µM | 0.302 µM | 0.18 µM | 0.374 µM | 0.15 µM
4 | Oc1ccc(-c2[nH]c3ccccc3c2-c2nc3ccccc3o2)cc1 | 13 µM | 8.74 µM | 9.88 µM | 22.1 µM | 14.7 µM | 18.5 µM | 3.15 µM | 2.26 µM | 2.26 µM | 6.77 µM | 2.14 µM | 3.35 µM
5 | Cc1ccc(NC2=CC(=O)C(=O)c3ccccc32)c(C)c1 | 4.23 µM | 3.48 µM | 4.51 µM | 15 µM | 12.2 µM | 17.1 µM | 1.66 µM | 1.79 µM | 1.78 µM | 3.88 µM | 2.53 µM | 3.37 µM
6 | O=C(Nc1cccc(-n2cc(-c3ccncc3)c(-c3ccc(O)c(Cl)c3)n2)c1)Nc1ccc(Cl)c(Cl)c1 | 5.33 µM | 5.92 µM | 6.62 µM | > 100 µM | 9.5 µM | 7.45 µM | 1.83 µM | 1.96 µM | 1.88 µM | 3.06 µM | 2.4 µM | 2.07 µM
7 | O=C(O)Cn1ccc(=O)c2c([N+](=O)[O-])cccc21 | > 100 µM | > 100 µM | > 100 µM | > 100 µM | – | > 100 µM | – | – | – | – | – | –
8 | O=C(/C=C/c1ccc(Cl)cc1)c1ccc(Cl)s1 | 22.4 µM | – | > 100 µM | > 100 µM | > 100 µM | > 100 µM | – | – | – | – | – | –
9 | Cc1ccc(O)cc1Nc1ccnc2cc(-c3ccccn3)ccc12 | 6.96 µM | 5.65 µM | 10.9 µM | 18.3 µM | 11.7 µM | 10.4 µM | 3.49 µM | 1.98 µM | 3.59 µM | 4.54 µM | 1.82 µM | 3.08 µM
10 | CCCCOCCOCCOC1=C(Cl)C(=O)c2c(O)ccc(O)c2C1=O | 1.41 µM | – | 2.92 µM | 3.2 µM | 1.38 µM | 3.19 µM | – | – | – | – | – | –
11 | CON(C)C(=O)C(C)NC(=O)OC(C)(C)C (configuration not stated) | > 100 µM | > 100 µM | > 100 µM | > 100 µM | – | > 100 µM | – | – | – | – | – | –
12 | CC(=O)c1sc2c(c1O)c(=O)n(-c1ccccc1)c(=S)n2-c1ccccc1 | – | > 100 µM | > 100 µM | > 100 µM | > 100 µM | – | – | – | – | – | – | –
